Measured values: ChEMBL document CHEMBL1201862, “PubChem BioAssay data set” (2004)
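In this assay, cells in 96-well plates receive the compound at five concentrations for 48 hours. Endpoints are linearly interpolated between the surrounding concentrations. At the GI50, growth is halved.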 The source made the active and inactive calls. No stated cut-off is given here; in the data, active = GI50 up to about 1.1 µM and inactive = higher. Peptide text beside a SMILES is read from it. * marks the point of attachment. Boc = CC(C)(C)OC(=O)*

Experiments:
Assay in all cases: DTP human tumour cell line panel, 48 h
A549 = test system: A549
NCI-H460 = test system: NCI-H460
UACC-62 = test system: UACC-62
M14 = test system: M14
SK-MEL-2 = test system: SK-MEL-2
CAKI-1 = test system: CAKI-1
NCI-H226 = test system: NCI-H226
MDA-MB-435 = test system: MDA-MB-435
EKVX = test system: EKVX
HOP-92 = test system: HOP-92
MDA-N = test system: MDA-N
HL-60 = test system: HL-60
SR = test system: SR
Hs-578T = test system: Hs-578T
ACHN = test system: ACHN
SK-OV-3 = test system: SK-OV-3
TK-10 = test system: TK-10
HOP-62 = test system: HOP-62
NCI/ADR-RES = test system: NCI/ADR-RES
RXF 393 = test system: RXF 393

SMILES	GI50 (A549)	GI50 (NCI-H460)	GI50 (UACC-62)	GI50 (M14)	GI50 (SK-MEL-2)	GI50 (CAKI-1)	GI50 (NCI-H226)	GI50 (MDA-MB-435)	GI50 (EKVX)	GI50 (HOP-92)	GI50 (MDA-N)	GI50 (HL-60)	GI50 (SR)	GI50 (Hs-578T)	GI50 (ACHN)	GI50 (SK-OV-3)	GI50 (TK-10)	GI50 (HOP-62)	GI50 (NCI/ADR-RES)	GI50 (RXF 393)
O=C(c1ccccn1)c1nnn2ccccc12	> 100 µM (inactive)	> 100 µM (inactive)	> 100 µM (inactive)	> 100 µM (inactive)	> 100 µM (inactive)	> 100 µM (inactive)	> 100 µM (inactive)	> 100 µM (inactive)	> 100 µM (inactive)	> 100 µM (inactive)	> 100 µM (inactive)	> 100 µM (inactive)	> 100 µM (inactive)	> 100 µM (inactive)	> 100 µM (inactive)	> 100 µM (inactive)	> 100 µM (inactive)	> 100 µM (inactive)		
Cn1c2ccccc2c(=O)c2cccc(C(=O)NC(CCCNC(=N)N)C(=O)O)c21 (stereo unspecified)	> 100 µM (inactive)	> 100 µM (inactive)	> 100 µM (inactive)	> 100 µM (inactive)	> 100 µM (inactive)		> 100 µM (inactive)	> 100 µM (inactive)	> 100 µM (inactive)		> 100 µM (inactive)			> 100 µM (inactive)	> 100 µM (inactive)	> 100 µM (inactive)	> 100 µM (inactive)	> 100 µM (inactive)	26.1 µM (inactive)	
O=c1ccc(=O)n(-c2ccccc2)[nH]1	> 100 µM (inactive)	> 100 µM (inactive)	> 100 µM (inactive)	> 100 µM (inactive)	> 100 µM (inactive)	> 100 µM (inactive)	> 100 µM (inactive)	> 100 µM (inactive)	> 100 µM (inactive)	> 100 µM (inactive)	> 100 µM (inactive)	> 100 µM (inactive)		> 100 µM (inactive)	> 100 µM (inactive)	> 100 µM (inactive)	> 100 µM (inactive)	> 100 µM (inactive)	> 100 µM (inactive)	> 100 µM (inactive)
COc1cc(OC)c(OC)cc1/C=C/c1cnnc2ccccc12	> 10 µM (inactive)	> 10 µM (inactive)	> 10 µM (inactive)	> 10 µM (inactive)	> 10 µM (inactive)	> 10 µM (inactive)	> 10 µM (inactive)	1.84 µM (inactive)	> 10 µM (inactive)	> 10 µM (inactive)	4.05 µM (inactive)	> 10 µM (inactive)		> 10 µM (inactive)	> 10 µM (inactive)	> 10 µM (inactive)	> 10 µM (inactive)	> 10 µM (inactive)	> 10 µM (inactive)	> 10 µM (inactive)
Cc1oc2c(c1C)S(=O)(=O)C(C#N)C(c1ccccc1)N2 (stereo unspecified)	44.7 µM (inactive)	41 µM (inactive)	41.4 µM (inactive)	40.4 µM (inactive)	61.8 µM (inactive)	36.1 µM (inactive)	> 100 µM (inactive)	34.5 µM (inactive)	> 100 µM (inactive)	64.6 µM (inactive)	29 µM (inactive)			30.9 µM (inactive)	> 100 µM (inactive)	86.5 µM (inactive)	> 100 µM (inactive)	> 100 µM (inactive)	30.8 µM (inactive)	
COc1ccc(N[S+]([O-])c2ccccc2OC)cc1 (stereo unspecified)	16.2 µM (inactive)	16 µM (inactive)	2.07 µM (inactive)	33.3 µM (inactive)	11.8 µM (inactive)	25.8 µM (inactive)	13.4 µM (inactive)	7.53 µM (inactive)	38.9 µM (inactive)		33.4 µM (inactive)	17.7 µM (inactive)	11.9 µM (inactive)	21.7 µM (inactive)	20.4 µM (inactive)		> 100 µM (inactive)	37.2 µM (inactive)	15.9 µM (inactive)	
CC(=O)Nc1c(C)cc2c(nc3n2CCC3O)c1[N+](=O)[O-] (stereo unspecified)	> 100 µM (inactive)	> 100 µM (inactive)	> 100 µM (inactive)	> 100 µM (inactive)	> 100 µM (inactive)	> 100 µM (inactive)	> 100 µM (inactive)	> 100 µM (inactive)	> 100 µM (inactive)	> 100 µM (inactive)	> 100 µM (inactive)	> 100 µM (inactive)		> 100 µM (inactive)	> 100 µM (inactive)	> 100 µM (inactive)			> 100 µM (inactive)	
O=C1/C(=C/c2ccc(O)c([N+](=O)[O-])c2)CCC/C1=C\c1ccc(O)c([N+](=O)[O-])c1	11.7 µM (inactive)	17.8 µM (inactive)	7.23 µM (inactive)	10.8 µM (inactive)	11.4 µM (inactive)	11.5 µM (inactive)	11.6 µM (inactive)	9.53 µM (inactive)	22.6 µM (inactive)		7.57 µM (inactive)	14.6 µM (inactive)		4.48 µM (inactive)	7.96 µM (inactive)	26 µM (inactive)	23.2 µM (inactive)	12.5 µM (inactive)	19.2 µM (inactive)	10 µM (inactive)
CC(=O)OC1C(O)C(C)OC(OC2C(OC(=O)C3CCC4C(C3)OC3(CC(OC(=O)/C=C/c5ccccc5)C(C)CO3)C43CO3)OC(C)C(O)C2OC(C)=O)C1O (stereo unspecified)	0.0557 µM (active)	0.0131 µM (active)	0.0108 µM (active)	0.00433 µM (active)	0.00561 µM (active)	0.285 µM (active)	0.0142 µM (active)	0.000668 µM (active)	0.0148 µM (active)	0.00581 µM (active)	0.00269 µM (active)	0.00507 µM (active)	0.00258 µM (active)	0.00124 µM (active)	0.0925 µM (active)	0.0145 µM (active)	0.0506 µM (active)	0.00951 µM (active)		0.0319 µM (active)
CCOCC(NC(=O)C(CC(C)C)NC(=O)OC(C)(C)C)C(N)=O (stereo not drawn) (Boc-Leu-Ser(Et)-NH2; configuration not given here)	> 100 µM (inactive)		> 100 µM (inactive)	> 100 µM (inactive)	> 100 µM (inactive)	> 100 µM (inactive)	> 100 µM (inactive)	> 100 µM (inactive)	> 100 µM (inactive)	> 100 µM (inactive)	> 100 µM (inactive)	> 100 µM (inactive)		> 100 µM (inactive)	> 100 µM (inactive)	> 100 µM (inactive)	> 100 µM (inactive)	> 100 µM (inactive)	> 100 µM (inactive)	> 100 µM (inactive)
OCCN(C1=NCCN1)/[N+](=C\c1ccccn1)[CH-]c1ccccn1	> 100 µM (inactive)	> 100 µM (inactive)	> 100 µM (inactive)	> 100 µM (inactive)		> 100 µM (inactive)	> 100 µM (inactive)	> 100 µM (inactive)	> 100 µM (inactive)		> 100 µM (inactive)	> 100 µM (inactive)	8.87 µM (inactive)	> 100 µM (inactive)	> 100 µM (inactive)	> 100 µM (inactive)		> 100 µM (inactive)	> 100 µM (inactive)	
Cc1ccc(S(=O)(=O)N2CCCCN(S(=O)(=O)c3ccc(C)cc3)Cc3ccccc3OCCOCCOc3c4cccc3Cc3cccc5c3OCCOCCOc3ccccc3CN(S(=O)(=O)c3ccc(C)cc3)CCCN(S(=O)(=O)c3ccc(C)cc3)Cc3ccccc3OCCOCCOc3c(cccc3C4)Cc3cccc(c3OCCOCCOc3ccccc3C2)C5)cc1	> 100 µM (inactive)	> 100 µM (inactive)	> 100 µM (inactive)	> 100 µM (inactive)	> 100 µM (inactive)	> 100 µM (inactive)	> 100 µM (inactive)	> 100 µM (inactive)	> 100 µM (inactive)	> 100 µM (inactive)	> 100 µM (inactive)			> 100 µM (inactive)	> 100 µM (inactive)	> 100 µM (inactive)	> 100 µM (inactive)	> 100 µM (inactive)	> 100 µM (inactive)	> 100 µM (inactive)
COc1ccc(OCc2nc3cc(C(F)(F)F)ccc3nc2-c2ccccc2)cc1	> 100 µM (inactive)	> 100 µM (inactive)	> 100 µM (inactive)	> 100 µM (inactive)	> 100 µM (inactive)	> 100 µM (inactive)	> 100 µM (inactive)	> 100 µM (inactive)	> 100 µM (inactive)	> 100 µM (inactive)	> 100 µM (inactive)	> 100 µM (inactive)		> 100 µM (inactive)	> 100 µM (inactive)	> 100 µM (inactive)	> 100 µM (inactive)	> 100 µM (inactive)	> 100 µM (inactive)	> 100 µM (inactive)
C[C@@]1(Br)C[C@@](C)(Cl)[C@@H](Br)CC1/C=C/Cl (stereo partly specified)	17.7 µM (inactive)	28.6 µM (inactive)	> 10 µM (inactive)	16.6 µM (inactive)	16.7 µM (inactive)		10.8 µM (inactive)	16.9 µM (inactive)			15.8 µM (inactive)		14.1 µM (inactive)	16.7 µM (inactive)	18.1 µM (inactive)	17.5 µM (inactive)	18.4 µM (inactive)	17 µM (inactive)	13.1 µM (inactive)	
C=C(CO)[C@H]1CC/C(C)=C/CC/C(C)=C/C/C=C(\C)[C@H](O)C1	42 µM (inactive)	22.1 µM (inactive)	23 µM (inactive)		22.8 µM (inactive)	31.3 µM (inactive)	30.5 µM (inactive)	18.6 µM (inactive)	33.2 µM (inactive)	19.8 µM (inactive)	34.5 µM (inactive)			25.5 µM (inactive)	26.3 µM (inactive)	> 100 µM (inactive)	20.6 µM (inactive)	> 100 µM (inactive)	27.3 µM (inactive)	19.9 µM (inactive)
